According to BindingDB's records for doi:10.1124/dmd.112.048355 (Glaxosmithkline, 2013):

Molecular target: Methionine aminopeptidase 2 (Homo sapiens) (UniProt P50579)
Test: Inhibition of MetAP2 activity in HUVEC assessed as inhibition of cell proliferation by MTT assay

Chain of Methionine aminopeptidase 2 (Homo sapiens) (P50579 whole entry, looked up): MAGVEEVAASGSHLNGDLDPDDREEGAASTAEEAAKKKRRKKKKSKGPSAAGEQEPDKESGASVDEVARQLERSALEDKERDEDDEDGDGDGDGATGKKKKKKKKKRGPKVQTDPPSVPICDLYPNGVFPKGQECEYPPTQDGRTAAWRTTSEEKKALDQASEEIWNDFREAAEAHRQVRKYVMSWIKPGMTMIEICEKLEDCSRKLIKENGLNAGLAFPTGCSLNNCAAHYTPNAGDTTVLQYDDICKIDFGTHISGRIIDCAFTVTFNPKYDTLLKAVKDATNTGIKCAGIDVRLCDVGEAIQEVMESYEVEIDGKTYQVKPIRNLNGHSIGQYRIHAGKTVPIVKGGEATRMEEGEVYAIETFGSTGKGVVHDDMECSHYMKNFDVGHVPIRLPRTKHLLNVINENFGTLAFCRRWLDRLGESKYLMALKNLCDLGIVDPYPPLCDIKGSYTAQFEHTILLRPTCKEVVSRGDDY

SMILES | EC50 [nM]
CO[C@@H]1[C@H](OC(=O)N[C@@H](C(N)=O)C(C)C)CC[C@]2(CO2)[C@H]1[C@@]1(C)O[C@@H]1CC=C(C)C | 0.095
CO[C@@H]1[C@H](OC(=O)N[C@@H](C(N)=O)C(C)C)CC[C@]2(CO2)[C@H]1[C@@]1(C)O[C@@H]1C/C=C(\C)CO | 7.1
CO[C@@H]1[C@H](OC(=O)N[C@@H](C(N)=O)C(C)(C)O)CC[C@]2(CO2)[C@H]1[C@@]1(C)O[C@@H]1C[C@@H]1OC1(C)C | 12
CO[C@@H]1[C@H](OC(=O)N[C@@H](C(N)=O)C(C)C)CC[C@]2(CO2)[C@H]1[C@@]1(C)O[C@@H]1C[C@@H]1OC1(C)C | 6.5
CO[C@@H]1[C@H](OC(=O)N[C@@H](C(N)=O)C(C)C)CC[C@]2(CO2)[C@H]1[C@@]1(C)O[C@@H]1C[C@H]1OC1(C)C | 1.3
CO[C@@H]1[C@H](OC(=O)N[C@@H](C(N)=O)C(C)(C)O)CC[C@]2(CO2)[C@H]1[C@@]1(C)O[C@@H]1CC=C(C)C | 0.3
CO[C@@H]1[C@H](OC(=O)N[C@@H](C(N)=O)C(C)(C)O)CC[C@]2(CO2)[C@H]1[C@@]1(C)O[C@@H]1C[C@H]1OC1(C)C | 8.8
